In the NIST ThermoML archive (doi:10.1021/je050085p):
Numbers after ± are expanded uncertainties.

What was measured:
[1] = refractive index (Na D-line) (dimensionless); conditions: 101.33 kPa, Liquid, Standard Abbe refractometry
[2] = 101.33 kPa, Liquid
[3] = refractive index (Na D-line) (dimensionless); xn = mol fraction of the nth substance listed; conditions: 308.15 K, 101 kPa, Liquid, Standard Abbe refractometry
[4] = xn = mol fraction of the nth substance listed; conditions: 308.15 K, 101 kPa, Liquid
[5] = excess molar enthalpy (molar enthalpy of mixing); xn = mol fraction of the nth substance listed; conditions: 308.15 K, 101 kPa, Liquid, Flow calorimetry

OCc1ccccc1 [benzenemethanol]
refractive index ([1]; 298.15 K): 1.5377 ± 0.0005
refractive index ([1]; 308.15 K): 1.535 ± 0.0005
mass density ([2]; 298.15 K): 1041.65 ± 0.22 kg/m3
mass density ([2]; 308.15 K): 1033.64 ± 0.21 kg/m3

OCc1ccccc1 [benzenemethanol] + COc1ccccc1
refractive index ([3]; x2 = 0.0519): 1.5335 ± 0.0007
refractive index ([3]; x2 = 0.0898): 1.5324 ± 0.0007
refractive index ([3]; x2 = 0.1854): 1.5298 ± 0.0007
refractive index ([3]; x2 = 0.2883): 1.527 ± 0.0007
refractive index ([3]; x2 = 0.3766): 1.5247 ± 0.0007
refractive index ([3]; x2 = 0.4911): 1.5218 ± 0.0007
refractive index ([3]; x2 = 0.5916): 1.5193 ± 0.0007
refractive index ([3]; x2 = 0.6747): 1.5173 ± 0.0007
refractive index ([3]; x2 = 0.7745): 1.5149 ± 0.0007
refractive index ([3]; x2 = 0.9039): 1.5118 ± 0.0007
refractive index ([3]; x2 = 0.9448): 1.5108 ± 0.0007
refractive index ([3]; x2 = 0.9723): 1.5102 ± 0.0007
mass density ([4]; x2 = 0.0519): 1030.85 ± 0.21 kg/m3
mass density ([4]; x2 = 0.0898): 1028.81 ± 0.22 kg/m3
mass density ([4]; x2 = 0.1854): 1023.62 ± 0.24 kg/m3
mass density ([4]; x2 = 0.2883): 1018 ± 0.27 kg/m3
mass density ([4]; x2 = 0.3766): 1013.19 ± 0.29 kg/m3
mass density ([4]; x2 = 0.4911): 1006.94 ± 0.33 kg/m3
mass density ([4]; x2 = 0.5916): 1001.47 ± 0.36 kg/m3
mass density ([4]; x2 = 0.6747): 996.96 ± 0.39 kg/m3
mass density ([4]; x2 = 0.7745): 991.59 ± 0.43 kg/m3
mass density ([4]; x2 = 0.9039): 984.73 ± 0.48 kg/m3
mass density ([4]; x2 = 0.9448): 982.58 ± 0.5 kg/m3
mass density ([4]; x2 = 0.9723): 981.14 ± 0.51 kg/m3
excess molar enthalpy ([5]; x2 = 0.038): 0.022 ± 0.000621 kcal/mol
excess molar enthalpy ([5]; x2 = 0.0732): 0.0461 ± 0.00108 kcal/mol
excess molar enthalpy ([5]; x2 = 0.1059): 0.0655 ± 0.00148 kcal/mol
excess molar enthalpy ([5]; x2 = 0.1364): 0.0877 ± 0.00194 kcal/mol
excess molar enthalpy ([5]; x2 = 0.1916): 0.121 ± 0.00263 kcal/mol
excess molar enthalpy ([5]; x2 = 0.2401): 0.148 ± 0.00311 kcal/mol
excess molar enthalpy ([5]; x2 = 0.3216): 0.182 ± 0.00382 kcal/mol
excess molar enthalpy ([5]; x2 = 0.3871): 0.203 ± 0.0043 kcal/mol
excess molar enthalpy ([5]; x2 = 0.4866): 0.232 ± 0.00502 kcal/mol
excess molar enthalpy ([5]; x2 = 0.5872): 0.249 ± 0.00526 kcal/mol
excess molar enthalpy ([5]; x2 = 0.6547): 0.254 ± 0.0055 kcal/mol
excess molar enthalpy ([5]; x2 = 0.7398): 0.252 ± 0.0055 kcal/mol
excess molar enthalpy ([5]; x2 = 0.7913): 0.24 ± 0.00502 kcal/mol
excess molar enthalpy ([5]; x2 = 0.8505): 0.211 ± 0.00454 kcal/mol
excess molar enthalpy ([5]; x2 = 0.8835): 0.185 ± 0.00406 kcal/mol
excess molar enthalpy ([5]; x2 = 0.9191): 0.146 ± 0.00311 kcal/mol
excess molar enthalpy ([5]; x2 = 0.9578): 0.0877 ± 0.00201 kcal/mol

CCOc1ccccc1 [ethoxybenzene]
refractive index ([1]; 298.15 K): 1.5058 ± 0.0007
refractive index ([1]; 308.15 K): 1.5002 ± 0.0007
mass density ([2]; 308.15 K): 950.86 ± 0.55 kg/m3

CCOc1ccccc1 [ethoxybenzene] + OCCc1ccccc1
refractive index ([3]; x1 = 0.0656): 1.5252 ± 0.0007
refractive index ([3]; x1 = 0.1079): 1.524 ± 0.0007
refractive index ([3]; x1 = 0.1726): 1.5223 ± 0.0007
refractive index ([3]; x1 = 0.3041): 1.5187 ± 0.0007
refractive index ([3]; x1 = 0.3803): 1.5166 ± 0.0007
refractive index ([3]; x1 = 0.4826): 1.5137 ± 0.0007
refractive index ([3]; x1 = 0.5243): 1.5126 ± 0.0007
refractive index ([3]; x1 = 0.5904): 1.5108 ± 0.0007
refractive index ([3]; x1 = 0.6819): 1.5083 ± 0.0007
refractive index ([3]; x1 = 0.7929): 1.5054 ± 0.0007
refractive index ([3]; x1 = 0.8881): 1.5029 ± 0.0007
refractive index ([3]; x1 = 0.9469): 1.5014 ± 0.0007
refractive index ([3]; x1 = 0.9881): 1.5005 ± 0.0007
mass density ([4]; x1 = 0.0656): 1004.96 ± 0.53 kg/m3
mass density ([4]; x1 = 0.1079): 1002.5 ± 0.52 kg/m3
mass density ([4]; x1 = 0.1726): 998.71 ± 0.52 kg/m3
mass density ([4]; x1 = 0.3041): 990.99 ± 0.52 kg/m3
mass density ([4]; x1 = 0.3803): 986.52 ± 0.52 kg/m3
mass density ([4]; x1 = 0.4826): 980.37 ± 0.52 kg/m3
mass density ([4]; x1 = 0.5243): 978.09 ± 0.52 kg/m3
mass density ([4]; x1 = 0.5904): 974.22 ± 0.52 kg/m3
mass density ([4]; x1 = 0.6819): 968.87 ± 0.52 kg/m3
mass density ([4]; x1 = 0.7929): 962.44 ± 0.52 kg/m3
mass density ([4]; x1 = 0.8881): 957 ± 0.52 kg/m3
mass density ([4]; x1 = 0.9469): 953.74 ± 0.52 kg/m3
mass density ([4]; x1 = 0.9881): 951.5 ± 0.52 kg/m3
excess molar enthalpy ([5]; x1 = 0.0378): 0.027 ± 0.000717 kcal/mol
excess molar enthalpy ([5]; x1 = 0.0728): 0.0534 ± 0.00124 kcal/mol
excess molar enthalpy ([5]; x1 = 0.1054): 0.0772 ± 0.00172 kcal/mol
excess molar enthalpy ([5]; x1 = 0.1358): 0.0979 ± 0.00215 kcal/mol
excess molar enthalpy ([5]; x1 = 0.1907): 0.135 ± 0.00287 kcal/mol
excess molar enthalpy ([5]; x1 = 0.2391): 0.159 ± 0.00335 kcal/mol
excess molar enthalpy ([5]; x1 = 0.3203): 0.193 ± 0.00406 kcal/mol
excess molar enthalpy ([5]; x1 = 0.3858): 0.218 ± 0.00478 kcal/mol
excess molar enthalpy ([5]; x1 = 0.4852): 0.245 ± 0.00526 kcal/mol
excess molar enthalpy ([5]; x1 = 0.5857): 0.268 ± 0.00574 kcal/mol
excess molar enthalpy ([5]; x1 = 0.6534): 0.275 ± 0.00598 kcal/mol
excess molar enthalpy ([5]; x1 = 0.7388): 0.273 ± 0.00598 kcal/mol
excess molar enthalpy ([5]; x1 = 0.7904): 0.264 ± 0.00574 kcal/mol
excess molar enthalpy ([5]; x1 = 0.8498): 0.232 ± 0.00502 kcal/mol
excess molar enthalpy ([5]; x1 = 0.8829): 0.204 ± 0.0043 kcal/mol
excess molar enthalpy ([5]; x1 = 0.9188): 0.161 ± 0.00359 kcal/mol
excess molar enthalpy ([5]; x1 = 0.9577): 0.0965 ± 0.00222 kcal/mol

CCOc1ccccc1 [ethoxybenzene] + OCc1ccccc1
refractive index ([3]; x1 = 0.0642): 1.5322 ± 0.0007
refractive index ([3]; x1 = 0.0826): 1.5313 ± 0.0007
refractive index ([3]; x1 = 0.1663): 1.5279 ± 0.0007
refractive index ([3]; x1 = 0.1751): 1.5275 ± 0.0007
refractive index ([3]; x1 = 0.2585): 1.5244 ± 0.0007
refractive index ([3]; x1 = 0.3363): 1.5216 ± 0.0007
refractive index ([3]; x1 = 0.4598): 1.5172 ± 0.0007
refractive index ([3]; x1 = 0.544): 1.5142 ± 0.0007
refractive index ([3]; x1 = 0.6369): 1.5111 ± 0.0007
refractive index ([3]; x1 = 0.7572): 1.5071 ± 0.0007
refractive index ([3]; x1 = 0.8621): 1.5039 ± 0.0007
refractive index ([3]; x1 = 0.9361): 1.5018 ± 0.0007
mass density ([4]; x1 = 0.0642): 1027.61 ± 0.22 kg/m3
mass density ([4]; x1 = 0.0826): 1025.86 ± 0.22 kg/m3
mass density ([4]; x1 = 0.1663): 1018.18 ± 0.23 kg/m3
mass density ([4]; x1 = 0.1751): 1017.38 ± 0.23 kg/m3
mass density ([4]; x1 = 0.2585): 1009.89 ± 0.25 kg/m3
mass density ([4]; x1 = 0.3363): 1003.06 ± 0.27 kg/m3
mass density ([4]; x1 = 0.4598): 992.51 ± 0.32 kg/m3
mass density ([4]; x1 = 0.544): 985.53 ± 0.35 kg/m3
mass density ([4]; x1 = 0.6369): 978.04 ± 0.39 kg/m3
mass density ([4]; x1 = 0.7572): 968.65 ± 0.43 kg/m3
mass density ([4]; x1 = 0.8621): 960.77 ± 0.47 kg/m3
mass density ([4]; x1 = 0.9361): 955.37 ± 0.5 kg/m3
excess molar enthalpy ([5]; x1 = 0.0328): 0.0247 ± 0.000669 kcal/mol
excess molar enthalpy ([5]; x1 = 0.0636): 0.0454 ± 0.00108 kcal/mol
excess molar enthalpy ([5]; x1 = 0.0924): 0.0677 ± 0.00153 kcal/mol
excess molar enthalpy ([5]; x1 = 0.1195): 0.0854 ± 0.00189 kcal/mol
excess molar enthalpy ([5]; x1 = 0.1691): 0.118 ± 0.00263 kcal/mol
excess molar enthalpy ([5]; x1 = 0.2135): 0.147 ± 0.00311 kcal/mol
excess molar enthalpy ([5]; x1 = 0.2893): 0.177 ± 0.00382 kcal/mol
excess molar enthalpy ([5]; x1 = 0.3517): 0.205 ± 0.0043 kcal/mol
excess molar enthalpy ([5]; x1 = 0.4488): 0.232 ± 0.00502 kcal/mol
excess molar enthalpy ([5]; x1 = 0.5499): 0.252 ± 0.0055 kcal/mol
excess molar enthalpy ([5]; x1 = 0.6196): 0.262 ± 0.00574 kcal/mol
excess molar enthalpy ([5]; x1 = 0.7095): 0.266 ± 0.00574 kcal/mol
excess molar enthalpy ([5]; x1 = 0.7651): 0.259 ± 0.0055 kcal/mol
excess molar enthalpy ([5]; x1 = 0.8301): 0.232 ± 0.00502 kcal/mol
excess molar enthalpy ([5]; x1 = 0.8669): 0.209 ± 0.00454 kcal/mol
excess molar enthalpy ([5]; x1 = 0.907): 0.169 ± 0.00359 kcal/mol
excess molar enthalpy ([5]; x1 = 0.9513): 0.104 ± 0.00234 kcal/mol
